Data taken from patent US20080318954A1, “Compounds” (Cyclacel Limited, priority 2004, published 2008).

How the values were obtained:
CDK7/cyclin H = target: T1, CDK7/cyclin H (Homo sapiens, UniProt P50613); assay: CDK7/cyclin H inhibition constant; assay type: biochemical
T1 construct: His6 (N); made in house; host or cells: Sf9 insect cells (baculovirus)
Procedure: (§1) CDK4/cyclin D1, CDK1/cyclin B, CDK2/cyclin E, CDK2/cyclin A, CDK9/cyclin T1 and CDK7/cyclin H, all with a His6 tag on the N-terminus, were expressed in Sf9 insect cells using an appropriate baculovirus construct. Sf9 culture (1.6×10^6 cells/mL) was infected (MOI of 3) for two days. The cells were harvested by low speed centrifugation and the protein was purified from the insect cell pellet by metal affinity chromatography. In short: the insect cell pellet was lysed in Buffer A (10 mM Tris-HCl pH 8.0, 150 mM NaCl, 0.02% NP-40, 5 mM β-mercaptoethanol, 20 mM NaF, 1 mM Na3VO4, and Sigma Protease Inhibitor Cocktail) by sonication. The soluble fraction was cleared by centrifugation and loaded onto Ni-NTA-Agarose (Qiagen). Non-bound protein was washed off with 300 mM NaCl, 5-15 mM imidazole in buffer A and the bound protein was eluted with buffer A supplemented with 250 mM imidazole. The purified proteins were extensively dialyzed against storage buffer (20 mM HEPES pH 7.4, 50 mM NaCl, 2 mM DTT, 1 mM EDTA, 1 mM EGTA, 0.02% NP-40, 10% v/v glycerol) and stored at −70° C.
Intrinsic inhibition constants (Ki) for example compound XIV against a number of Ser/Thr kinases were determined and are summarized in Table 3.

SAPK2b/p38b2 = target: T2, SAPK2b/p38b2 (Homo sapiens, UniProt Q15759); assay: Protein kinase panel selectivity screen, SAPK2b/p38b2; assay type: biochemical; conditions: 1 μM compound; [ATP] 20 μM
T2 construct: Dundee University (panel)
T2 sequence (Q15759 whole entry): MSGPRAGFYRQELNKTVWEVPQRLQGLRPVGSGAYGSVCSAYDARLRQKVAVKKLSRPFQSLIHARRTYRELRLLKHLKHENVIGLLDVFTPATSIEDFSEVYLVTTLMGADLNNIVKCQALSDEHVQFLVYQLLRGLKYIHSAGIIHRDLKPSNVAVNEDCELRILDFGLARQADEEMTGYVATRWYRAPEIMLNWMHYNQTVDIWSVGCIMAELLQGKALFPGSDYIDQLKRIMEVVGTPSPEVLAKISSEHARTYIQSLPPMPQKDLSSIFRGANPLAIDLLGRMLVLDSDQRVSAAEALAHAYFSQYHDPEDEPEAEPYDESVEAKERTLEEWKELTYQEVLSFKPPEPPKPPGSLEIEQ
Procedure: (§2) The names of the 29 kinases comprising the selectivity screen, as well as the ATP concentrations used in each kinase case, are given in Table 5. The kinase assays were carried out as described previously.
(§3) Compound XIV at a concentration of 1 μM was screened in the 29-kinase panel (Dundee University) and the results are shown bellow in Table 6.

AMPK = assay: Protein kinase panel selectivity screen, AMPK; assay type: biochemical; conditions: 1 μM compound; [ATP] 50 μM
Procedure: as §2, §3

PDK1 = target: T3, PDK1 (Homo sapiens, UniProt O15530); assay: Protein kinase panel selectivity screen, PDK1; assay type: biochemical; conditions: 1 μM compound; [ATP] 20 μM
T3 construct: Dundee University (panel)
T3 sequence (O15530 whole entry): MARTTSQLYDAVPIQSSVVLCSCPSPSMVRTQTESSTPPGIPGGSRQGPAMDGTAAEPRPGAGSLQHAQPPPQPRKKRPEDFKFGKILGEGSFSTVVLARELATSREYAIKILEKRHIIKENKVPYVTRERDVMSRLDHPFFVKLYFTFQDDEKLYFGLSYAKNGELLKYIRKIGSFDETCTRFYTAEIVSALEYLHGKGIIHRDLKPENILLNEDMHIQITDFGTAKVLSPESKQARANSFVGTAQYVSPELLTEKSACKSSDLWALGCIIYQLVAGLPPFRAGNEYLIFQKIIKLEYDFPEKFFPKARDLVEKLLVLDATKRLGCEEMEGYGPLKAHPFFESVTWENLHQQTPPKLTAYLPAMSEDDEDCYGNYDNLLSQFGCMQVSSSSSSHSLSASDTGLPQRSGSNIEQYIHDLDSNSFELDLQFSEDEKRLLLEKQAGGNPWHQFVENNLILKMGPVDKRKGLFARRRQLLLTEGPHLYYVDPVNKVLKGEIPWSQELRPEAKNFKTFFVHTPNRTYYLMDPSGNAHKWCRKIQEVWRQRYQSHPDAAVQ
Procedure: as §2, §3

CDK2/cyclin E = target: T4, CDK2/cyclin E (Homo sapiens, UniProt P24941); assay: CDK/cyclin kinase assay, CDK2/cyclin E; assay type: biochemical
T4 construct: His6 (N); made in house; host or cells: Sf9 insect cells (baculovirus)
Procedure: as §1
Compounds were investigated for their CDK2/cyclin E, CDK2/cyclin A, CDK1/cyclin B, and CDK4/cyclin D1 inhibitory activity. His6-tagged recombinant human cyclin-dependent kinases CDK1/cyclin B1, CDK2/cyclin E, CDK2/cyclin A, and CDK4 were expressed in sf9 insect cells using a baculovirus expression system. Recombinant cyclin D1 was expressed in E. coli. Proteins were purified by metal chelate affinity chromatography to greater than 90% homogeneity. Kinase assays were performed in 96-well plates using recombinant CDK/cyclins. Assays were performed in assay buffer (25 mM β-glycerophosphate, 20 mM MOPS, 5 mM EGTA, 1 mM DTT, 1 mM […], pH 7.4), into which were added 2-4 μg of active enzyme with appropriate substrates (purified histone H1 for CDK1 and CDK2, recombinant GST-retinoblastoma protein (residues 773-928) for CDK4). The reaction was initiated by addition of Mg/ATP mix (15 mM MgCl2+100 μM ATP with 30-50 kBq per well of [γ-^32P]-ATP) and mixtures incubated for 10-45 min, as required, at 30° C. Reactions were stopped on ice, followed by filtration through p81 or GF/C filterplates (for CDK4) (Whatman Polyfiltronics, Kent, UK). After washing 3 times with 75 mM aq orthophosphoric acid, plates were dried, scintillant added and incorporated radioactivity measured in a scintillation counter (TopCount, Packard Instruments, Pangbourne, Berks, UK). Compounds for kinase assays were made up as 10 mM stocks in DMSO and diluted into 10% DMSO in assay buffer. Data was analysed using curve-fitting software (GraphPad Prism version 3.00 for Windows, GraphPad Software, San Diego Calif. USA) to determine IC50 values (concentration of test compound which inhibits kinase activity by 50%).

[1] = test system: glycogen synthase activity in 3T3 mouse adipocytes; assay: Glycogen synthase (GS) assay in 3T3 mouse adipocytes; assay type: cell-based
Procedure: Mouse pre-adipocytes 3T3-F442A were seeded at 9×10^5 cells per 10 cm dish in DMEM 10% FCS, containing penicillin/streptomycin. When 90% confluent, the same medium was supplemented with 1 μg/mL insulin. After 3-5 days (when most cells were differentiated) insulin was removed and 4 days later the cells were ready to use.
Cells on 10 cm dishes (Human Embryonic Kidney (HEK) 293 cells, L6 rat myocytes, or 3T3 mouse adipocytes) were treated with different concentrations of GSK3-inhibitors or DMSO vehicle for 90 min. Incubation medium was removed and cells were washed with ice-cold phosphate-buffered saline (PBS) prior to lysis on ice in 50 mM HEPES, pH 7.5, 10 mM EDTA, 100 mM NaF, 5 mM DTT, protease inhibitor cocktail (Sigma). After a freeze/thaw cycle the samples are sonicated for 10 sec and centrifuged at 15,000 g for 10 min at 4° C. Lysate supernatants were snap-frozen on liquid nitrogen and stored at −80° C. Lysates were assayed for glycogen synthase activity in buffer (50 mM Tris-HCl, pH 7.8, 20 mM EDTA, 25 mM NaF, 5 mM DTT, 1% glycogen, 0.3 mM UDP-glucose and 0.06 μCi of [^14C]-UDP-glucose in the presence of 0.1 or 10 mM glucose-6-phosphate. The reaction was carried out for 30 min at 30° C. 70 μL of the reaction mixture (total volume 90 μL) were transferred to a GFC 96-well filter plate (bottom sealed with foil), containing 140 μL 96% ethanol. The GFC plate was incubated for 1 h on ice and than washed with 66% ethanol. To each well 100 μL scintillant liquid was added and the radioactivity of the samples was measured using a scintillation counter (Topcount, HP). Data are expressed as -fold increase in glycogen synthase activity ratios over those of control samples.

PHK = target: T5, PHK (Oryctolagus cuniculus, UniProt P00518); assay: Protein kinase panel selectivity screen, PHK; assay type: biochemical; conditions: 1 μM compound; [ATP] 20 μM
T5 construct: Dundee University (screening panel)
Procedure: as §2, §3

ROCK-II = assay: Protein kinase panel selectivity screen, ROCK-II; assay type: biochemical; conditions: 1 μM compound; [ATP] 20 μM
Procedure: as §2, §3

MAPKAP-K2 = target: T6, MAPKAP-K2 (Homo sapiens, UniProt P49137); assay: Protein kinase panel selectivity screen, MAPKAP-K2; assay type: biochemical; conditions: 1 μM compound; [ATP] 20 μM
T6 construct: Dundee University (panel)
T6 sequence (P49137 whole entry, species assumed): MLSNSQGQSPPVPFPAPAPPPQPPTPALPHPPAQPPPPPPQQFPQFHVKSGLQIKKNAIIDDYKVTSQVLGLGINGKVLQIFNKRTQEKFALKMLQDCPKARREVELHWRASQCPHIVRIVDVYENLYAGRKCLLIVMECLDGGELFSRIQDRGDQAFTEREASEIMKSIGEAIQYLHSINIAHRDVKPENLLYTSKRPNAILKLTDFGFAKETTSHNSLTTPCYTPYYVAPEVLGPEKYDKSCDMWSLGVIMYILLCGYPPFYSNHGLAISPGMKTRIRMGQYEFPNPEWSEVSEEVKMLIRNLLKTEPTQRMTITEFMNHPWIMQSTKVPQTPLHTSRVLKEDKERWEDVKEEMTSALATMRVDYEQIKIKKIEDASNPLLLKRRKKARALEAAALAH
Procedure: as §2, §3

T1 sequence (P50613 whole entry, species assumed): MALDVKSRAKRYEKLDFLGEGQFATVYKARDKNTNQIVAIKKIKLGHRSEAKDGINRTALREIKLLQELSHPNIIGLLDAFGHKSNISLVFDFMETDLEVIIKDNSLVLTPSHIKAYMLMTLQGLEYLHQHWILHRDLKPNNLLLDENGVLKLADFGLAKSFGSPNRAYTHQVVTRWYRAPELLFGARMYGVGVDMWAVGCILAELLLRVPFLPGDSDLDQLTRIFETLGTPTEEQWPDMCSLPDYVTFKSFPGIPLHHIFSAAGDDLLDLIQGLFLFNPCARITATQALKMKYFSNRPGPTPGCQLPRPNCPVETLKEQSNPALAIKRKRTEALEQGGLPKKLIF
T1 sequence (P51946 whole entry partner, species assumed): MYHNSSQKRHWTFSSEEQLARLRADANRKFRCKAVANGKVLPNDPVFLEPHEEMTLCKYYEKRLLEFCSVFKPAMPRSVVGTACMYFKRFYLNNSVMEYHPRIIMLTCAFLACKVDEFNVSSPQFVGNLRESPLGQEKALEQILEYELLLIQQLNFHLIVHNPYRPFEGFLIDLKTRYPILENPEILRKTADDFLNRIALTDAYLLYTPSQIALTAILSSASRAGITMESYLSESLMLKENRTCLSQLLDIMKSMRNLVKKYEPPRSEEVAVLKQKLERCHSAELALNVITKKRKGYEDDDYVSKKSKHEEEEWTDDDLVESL

Clc1ccc(Nc2nccc(-c3nccs3)n2)cn1 [Compound XIV, (6-Chloro-pyridin-3-yl)-(4-thiazol-2-yl-pyrimidin-2-yl)-amine]
Ki (CDK7/cyclin H): > 50 µM
Fold selectivity for GSK3 over CDK7/cyclin H (CDK7/cyclin H; from Ki): >3,125 fold
activity at 1 µM (SAPK2b/p38b2): 92 ± 4%
% Activity AMPK (AMPK): 82 ± 5%
activity at 1 µM (PDK1): 85 ± 5%
Ki (CDK2/cyclin E): 5.5 µM
Selectivity IC50 (CDK2/E)/IC50 (GSK3β) (CDK2/cyclin E): 63
Fold selectivity for GSK3 over CDK2/cyclin E (CDK2/cyclin E; from Ki): 345 fold
IC50 (CDK2/cyclin E; read-out: Kinase inhibition IC50 CDK2/E): 11 µM
Activation of GS relative to that induced by 40 mM LiCl ([1]; 3T3 adipocytes, 5 μM): approximately 2 fold
EC50 ([1]; Mus musculus, Adipocyte, 3T3 adipocytes, from dose-response curves, read-out: EC50 activation of glycogen synthase): 5 ± 2.3 µM
fold induction at 0.2 µM ([1]; Mus musculus, NIH3T3, 3T3 cells, 0.2 μM): 1.1
fold induction at 1 µM ([1]; Mus musculus, NIH3T3, 3T3 cells, 1 μM): 2.5
fold induction at 5 µM ([1]; Mus musculus, NIH3T3, 3T3 cells, 5 μM): 3.7
fold induction at 10 µM ([1]; Mus musculus, NIH3T3, 3T3 cells, 10 μM): 4.8
Activity of glycogen synthase (fractional velocity) ([1]; mouse adipocyte cells, ratio of activity at 0.1 and 10 mM glucose-6-phosphate): increased the activity of glycogen synthase
activity at 1 µM (PHK): 120 ± 7%
% Activity ROCK-II (ROCK-II): 87 ± 6%
activity at 1 µM (MAPKAP-K2): 86 ± 7%
